Structures can show the parent of a compound that is named as a salt.
Assays:
MRSA ON184 [1] = experiment: Checkerboard, FMCI; type: cell-based, Staphylococcus aureus; conditions: EDTA + chlorhexidine HCl
Procedure: (§1) An assay was made using a minimum inhibitory concentration (MIC) and minimum bactericidal concentration (MBC) and minimum fungicidal concentration (MFC) determination. The MIC was determined by the micro broth dilution method in 96-well plates. Serial two-fold dilutions of tetrasodium EDTA (from 2% to 0.015%), ethanol (from 50% to 0.1%) and chlorhexidine HCl (from 100 μg/mL to 0.025 μg/mL) were prepared in MH broth with a final volume of 90 μL per well. A 10 μL containing 1×10^5 bacterial cells or 2×10^3 fungal cells were added to each well. The inoculated plates were covered with a lid, sealed with Parafilm, and incubated for 24 h at 37° C. with slight rocking on a tilting platform shaker. After incubation, the optical density at 600 nm (OD 600) of the cultures in each well was measured using an xMark™ Microplate Absorbance Spectrophotometer (Bio-Rad). […] MBCs and MFCs were determined by transferring 100 μL from each well with no apparent growth onto appropriate agar plates, followed by incubation for 24 h at 37° C.
A fourth composition and solution included tetrasodium EDTA with ethanol or chlorhexidine HCl. […] The concentrations of antimicrobials used were based on previously determined MIC values. […] Microtiter plates were incubated at 37° C. for 24 h, and the results were analyzed. […]

S. epidermidis SK9 = experiment: MIC, micro broth dilution; type: cell-based, Staphylococcus epidermidis; conditions: agent alone
Procedure: as §1

MRSA ON184 [2] = experiment: MBEC assay, 48-h biofilm; type: cell-based, Staphylococcus aureus; conditions: MRSA ON184 48-h biofilm; 24 h exposure
Procedure: A biofilm cultivation cell composition was provided. This fifth composition was created using an MBEC Assay® biofilm inoculator, consisting of a polystyrene lid with 96 downward-protruding pegs and a corresponding base used to grow biofilms. A standardized inoculum was diluted in an appropriate biofilm growth medium to achieve a viable cell count of 1.5×10^6 CFU/mL of bacterial cells or 5×10^5 CFU/mL of fungal cells. Then, 150 μL of this inoculum was transferred into each appropriate well, and the peg lids were inserted into the microtiter plates. The plates were sealed with Parafilm and were incubated at optimum temperature for 48 h with slight rocking for bacteria and shaking at 200 rpm for fungal strains. After incubation, the peg lid was removed from the base and rinsed twice with sterile phosphate-buffered saline (PBS) for 2 min to remove loosely attached non-sessile cells. Before the antimicrobial challenge, the pegs in column 1 (n=8) were considered the biofilm growth control; these pegs were removed from the lids, placed into 200 μL of recovery medium, and analyzed for starting biofilm cell numbers as described below. […] MBEC values were determined as the minimum concentration of antimicrobials that yielded a viable cell count at or lower than the 125 CFU/mL detection limit.

Compound	Microbicidal concentration in combination (MRSA ON184 [1]) [µg/mL]	MIC (S. epidermidis SK9) [% w/v]	MBEC (MRSA ON184 [2]) [% w/v]
[H]/N=C(\N/C(=N/[H])NCCCCCCNC(=N)NC(=N)Nc1ccc(Cl)cc1)Nc1ccc(Cl)cc1 [Chlorhexidine HCl, chlorhexidine HCl, reference compound]	0.4		
O=C([O-])CN(CCN(CC(=O)[O-])CC(=O)[O-])CC(=O)[O-].[Na+].[Na+].[Na+].[Na+] [EDTA, tetrasodium EDTA]		0.063	2

Source: US20230263758A1, “COMPOSITIONS OF EDTA HAVING ACTIVITY AGAINST PLANKTONIC AND BIOFILM CELLS OF CLINICALLY RELEVANT PATHOGENS” (SterileCare Inc., priority 2022, published 2023)
